Laboratory results published in patent US8710252B2, “Hepodxilin analog enantiomers” (priority 2006, dated 2014).

What was measured:
[1] = system: washed human platelets; test: I-BOP evoked human platelet aggregation in vitro with washed platelets; assay type: cell-based; conditions: washed human platelets, 5 ng I-BOP; compounds are methyl esters; read-out: IC50, inhibition of I-BOP evoked human platelet aggregation
Method: Washed human platelets were prepared as previously described (Pace-Asciak et al., 2002). The aggregation of platelets was carried out in a conventional 4-well aggregometer with stirring of the suspension maintained at 37° C. The platelet suspension was caused to aggregate with a thromboxane stable analog, I-BOP. The isolated enantiomer compounds and their respective racemates, PBT-3 and PBT-4, were added at various concentrations to cuvettes containing 375×10^6 platelets/ml, 1 min prior to the addition of 5 ng I-BOP (Cayman Chemicals, Ann Arbor, Mich.). Aggregation was monitored for an additional 5 min.

[2] = system: human leukemic K562 cells; test: Inhibition of 3H-methyl thymidine incorporation (cell proliferation) in K562 cells; assay type: cell-based; conditions: 6 h treatment; compounds are methyl esters
Method: The human leukemic K562 cell line was established as previously reported (Qiao et al., 2003). Cells were maintained as suspension cultures in RPMI 1640 medium supplemented with 100 1.1/ml penicillin G, 100 μg/ml streptomycin, 10% (v/v) […] in a humidified atmosphere of 5% CO2 at 37° C. Cell viability was assessed by the exclusion of Trypan blue. Incorporation of ^3H-methyl thymidine into cell DNA was used as an assay for cell proliferation. Cells ([…]) were starved for 12 h, and were subsequently treated with the test compounds. Compounds A, B, C and D were made up at various concentrations in DMSO ([…] A, B, C and D. Concentrations were doubled for racemates PBT-3 and PBT-4) and 1 of these solutions was added/ml volume of cells. Cells were suspended in RPMI 1640 medium. At 6 h post-treatment at 37° C. the cells were fixed and denatured essentially as described in Qiao et al. (2003), harvested and passed through Whatman GF/C glass filters. The filters were washed and counted for radioactivity.

[3] = system: Caspase-3 cleavage in K562 cells; test: Caspase-3 cleavage in K562 cells, Western blot; assay type: cell-based, human; conditions: 10 uM, 6 h, FIG. 7
Method: Cell culture: Human leukemia K562 cells, obtained from ATCC (American Type Culture Collection), were maintained in RPMI 1640 medium containing 100 units/ml penicillin G, 100 μg/ml streptomycin, 10% (v/v) fetal calf serum in a humidified atmosphere with 5% CO2 at 37° C. The ability of the cells to exclude trypan Blue dye was used to assess cell viability.
Cell treatment: K562 cells were stored in 0.5% FBS for 15 min before the experiment. The cells, 6×10^5, were treated with DMSO as vehicle, or with PBT-3, PBT-4, or compounds A, B, C and D at 10 uM/dish (8 ml). Gleevec™ (STI) was used at 5 μM/dish. All experiments were without FBS and treatment lasted 6 h at 37° C. Treatment was terminated by washing the cells with ice-cold PBS buffer by centrifugation at 500×g for 5 min. Cells were lysed in buffer containing 20 mM Tris-HCl buffer, pH 7.4, 150 NaCl, 1 mM EDTA, 1 mM EGTA, 1% Triton X-100 2.5 mM sodium pyrophosphate, 1 mM beta-glycerophosphate, 1 mM sodium orthovanadate, 1 mM PMSF and 1 μM leupeptin/1 μM Aprotinin/1 μM pepstain A, on ice for 30 min. The lysates were clarified by centrifugation at 15,000×g for 15 min at 4° C. Lysates were subjected to protein assay (BCA, Pierce) and kept at −80° C.
Western blot: Thirty micrograms of protein from each sample were taken, and SDS-PAGE sample loading buffer was added. The mixture was boiled for 5 min. After centrifugation, the samples were loaded onto 15% SDS-PAGE gel and the gel was run (BioRad Protein II) for 2-3 h at 20 mA. The protein was transferred to a Trans-blot Nitrocellulose membrane (Millipore). Protein bands on the membranes were checked visually with Ponceau S-staining to ensure equivalent protein load/transfer comparing different samples. Membranes were blocked with 5% non-fat dry milk in PBS containing 0.5% Tween-20 for 1 h at room temperature, and then incubated with 1:1000 dilution of anti-caspase-3 antibody (BD Transduction Laboratories, Mississauga, Canada) overnight at 4° C. Secondary antibody of horseradish peroxidase anti-mouse antibody was used at 1:2000 dilution. Bound antibodies were detected by using enhanced chemilluminescence (ECL kit, Amersham Pharmacia Biotech) and the membranes were exposed to Hyper film for ECL detection. The same membrane was stripped by placing in buffer containing 62.5 mM Tris-HCl, pH 6.8/2% SDS/100 mM beta-mercaptoethanol at 50° C. for 30 min. The membrane was washed 3 times with PBS containing 0.5% Tween-20. The membrane was blocked by PBS buffer containing 0.5% Tween-20 and 5% skim milk. The anti-tubulin antibody (Santa Cruz, Calif.) was diluted 1:1000 and membrane analyzed by ECL as described above.

[4] = biological target: T1, Ga14-DBD-PPAR gamma-LBD fusion protein (Homo sapiens, UniProt P37231); test: PPAR gamma transactivation assay (Gal4-PPAR gamma LBD / UASx4-TK-luc reporter); assay type: cell-based
T1 construct: expressed in transfected cells; host or cells: mouse embryonic fibroblasts (MEFs) or ME3 cells
T1 sequence (P37231 238-503 limits assumed): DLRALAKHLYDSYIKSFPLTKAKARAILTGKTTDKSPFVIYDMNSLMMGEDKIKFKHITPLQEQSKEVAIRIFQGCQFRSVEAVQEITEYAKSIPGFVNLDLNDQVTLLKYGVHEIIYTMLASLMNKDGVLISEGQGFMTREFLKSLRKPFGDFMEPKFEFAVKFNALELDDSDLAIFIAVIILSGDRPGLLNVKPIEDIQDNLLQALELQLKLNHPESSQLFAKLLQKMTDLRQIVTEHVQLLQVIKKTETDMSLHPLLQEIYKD
From the text: The UASx4-TK-luc reporter construct (where UAS refers to “upstream activator sequence”) contains four Ga14-responsive elements. The plasmid Ga14-PPAR gammaLBD encodes a Ga14-DBD-PPAR gamma-LBD fusion protein (i.e. the DNA-binding domain, DBD, of Ga14 fused to the ligand-binding domain, LBD, of PPAR gamma) capable of transactivating the UASx4-TK-luc reporter plasmid by binding to the UAS. The CMV-beta-galactosidase plasmid (where CMV is cytomegalovirus) was used for normalization of experimental values.
The cells were replated, typically in 24 well plates, so that at the time of transfection the cells were 50-70% confluent.
Briefly, per well in a 24 well plate, UASx4TKIuc (0.2 microg) Ga14-PPAR gammaLBD (or pM-hPPAR gamma-LBD; 0.1 microg) and CMV-beta-galactosidase (0.05 microg) in 30 μL DMEM (free of serum and antibiotics) was mixed with 30 microL DMEM (free of serum and antibiotics) containing 1 microL metafectenein. The mixture was incubated at room temperature for 20 min to allow formation of nucleic acid-lipid complexes and then approximately 60 micros was added to each well containing the 50-70% confluent cells. […] Cells were harvested after 12-24 hours and luciferase and beta-galactosidase activities were measured according to standard protocols.
Each experiment was carried out with triplicate samples with 0.1, 1 or 10 microM racemate or purified enantiomer.

IC50 [1] [nM] | IC50 [2] [nM] | PPAR Activation as % of positive control (Avandia) ([4]; 10 microM racemate, Table 3) | PPAR Activation as % of positive control (Avandia) ([4]; Experiment 1, 0.1 microM) | PPAR Activation as % of positive control (Avandia) ([4]; Experiment 1, 1 microM) | PPAR Activation as % of positive control (Avandia) ([4]; Experiment 1, 10 microM) | PPAR Activation as % of positive control (Avandia) ([4]; Experiment 2, 0.1 microM) | PPAR Activation as % of positive control (Avandia) ([4]; Experiment 2, 1 microM) | PPAR Activation as % of positive control (Avandia) ([4]; Experiment 2, 10 microM) | PPAR Activation as % of positive control (Avandia) ([4]; Experiment 3, 0.1 microM) | PPAR Activation as % of positive control (Avandia) ([4]; Experiment 3, 1 microM) | PPAR Activation as % of positive control (Avandia) ([4]; Experiment 3, 10 microM) | SMILES | Cleavage of caspase-3 [3]
54 ± 9 | 4600 | 18 +/− 1 % of positive control (Avandia) | 11 +/− 2 % of positive control (Avandia) | 15 +/− 2 % of positive control (Avandia) | 42 +/− 8 % of positive control (Avandia) | 4 +/− 1 % of positive control (Avandia) | 8 +/− 1 % of positive control (Avandia) | 41 +/− 5 % of positive control (Avandia) | 8 +/− 2 % of positive control (Avandia) | 18 +/− 4 % of positive control (Avandia) | 32 +/− 4 % of positive control (Avandia) | CCCCC/C=C\CC1CC1C(O)/C=C\C/C=C\CCCC(=O)OC (centres unmarked) [PBT-3, 10-hydroxy-11,12-cyclopropyl-eicosa-5Z,8Z,14Z-trienoic acid methyl ester, reference compound] | increased cleavage of caspase-3
79 ± 17 | 4900 | 19 +/− 1 % of positive control (Avandia) | 13 +/− 2 % of positive control (Avandia) | 13 +/− 3 % of positive control (Avandia) | 60 +/− 9 % of positive control (Avandia) | 4 +/− 1 % of positive control (Avandia) | 7 +/− 1 % of positive control (Avandia) | 32 +/− 1 % of positive control (Avandia) | 7 +/− 1 % of positive control (Avandia) | 15 +/− 7 % of positive control (Avandia) | 33 +/− 8 % of positive control (Avandia) | CCCCC/C=C\CC1CC1C(O)/C=C\C/C=C\CCCC(=O)OC (centres unmarked) [PBT-4, 10-hydroxy-11,12-cyclopropyl-eicosa-5Z,8Z,14Z-trienoic acid methyl ester, reference compound] | increased cleavage of caspase-3
